ChEMBL document CHEMBL4425139, “Discovery, characterization, and lead optimization of 7-azaindole non-nucleoside HIV-1 reverse transcriptase inhibitors” (Bioorg Med Chem Lett, 2016)

Tests used:
[1] = system: Human immunodeficiency virus 1; experiment: Antiviral activity against HIV-1 LAI infected in human PBM cells after 7 days; type: functional, organism-based; conditions: Human immunodeficiency virus 1, LAI, 168 h
[2] = molecular target: T1, Human immunodeficiency virus type 1 reverse transcriptase (Human immunodeficiency virus 1, UniProt Q72547); experiment: Inhibition of HIV1 RT using 17-mer DNA/Alexa Fluor 488 5'-end labeled DNA/Alexa Fluor 555-aha-dUTP as primer/template/substrate preincubated for 10 mins followed substarte addition measured after 30 mins by FRET assay
[3] = molecular target: Human immunodeficiency virus type 1 reverse transcriptase (Human immunodeficiency virus 1, UniProt Q72547, V108I)
Vero = experiment: (§1) Cytotoxicity against HIV1 infected African green monkey Vero cells assessed as reduction in cell viability after 7 days by MTT assay; type: cell-based; conditions: chlorocebus sabaeus, vero, 168 h
PBMC = experiment: (§2) Cytotoxicity against HIV1 infected human PBMC cells assessed as reduction in cell viability after 7 days by MTT assay; type: cell-based; conditions: pbmc, 168 h
[4] = system: Human immunodeficiency virus 1; experiment: Ratio of IC50 for HIV1 RT K103N mutant to IC50 for wild type HIV1 RT
[5] = molecular target: Human immunodeficiency virus type 1 reverse transcriptase (Human immunodeficiency virus 1, UniProt Q72547, K103N)
[6] = system: Human immunodeficiency virus 1; experiment: Ratio of IC50 for HIV1 RT E138K mutant to IC50 for wild type HIV1 RT
[7] = system: Human immunodeficiency virus 1
CCRF-CEM = experiment: (§3) Cytotoxicity against HIV1 infected human CEM cells assessed as reduction in cell viability after 7 days by MTT assay; type: cell-based; conditions: ccrf-cem, 168 h
[8] = molecular target: Human immunodeficiency virus type 1 reverse transcriptase (Human immunodeficiency virus 1, UniProt Q72547, E138K)
[9] = Ratio of CC50 for human PBM cells to EC50 for HIV-1 LAI infected in human PBM cells
[10] = molecular target: T1, Human immunodeficiency virus type 1 reverse transcriptase; experiment: Inhibition of HIV1 RT using A5'-end 32P-labeled 24-mer primer/a48-mer template preincubated for 5 mins followed by 10 uM nucleotides addition measured after 5 mins by gel-based primer extension assay
[11] = molecular target: T1, Human immunodeficiency virus type 1 reverse transcriptase; experiment: Inhibition of HIV1 RT using A5'-end 32P-labeled 24-mer primer/a48-mer template preincubated for 5 mins followed by 25 uM nucleotides addition measured after 2 mins by gel-based primer extension assay
[12] = molecular target: T1, Human immunodeficiency virus type 1 reverse transcriptase; experiment: Inhibition of HIV1 RT using A5'-end 32P-labeled 24-mer primer/a48-mer template preincubated for 5 mins followed by 1 uM nucleotides addition measured after 10 mins by gel-based primer extension assay
[13] = molecular target: T1, Human immunodeficiency virus type 1 reverse transcriptase; experiment: Inhibition of HIV1 RT using A5'-end 32P-labeled 24-mer primer/a48-mer template preincubated for 5 mins followed by 0.5 uM nucleotides addition measured after 15 mins by gel-based primer extension assay
[14] = as §1; type: cell-based; conditions: chlorocebus sabaeus, HIV1 infected Vero cells
[15] = as §2; type: cell-based; conditions: HIV1 infected PBMC cells
[16] = as §3; type: cell-based, CCRF-CEM; conditions: HIV1 infected CEM (CCRF-CEM) cells

Row | SMILES | EC50 [1] [µM] | IC50 [2] [µM] | CC50 (Vero) [µM] | CC50 (PBMC) [µM] | CC50 (CCRF-CEM) [µM] | Ratio CC50/EC50 [9] | also measured
1 | CC1(C)CC(=O)c2c(nc3c(c(C#N)cn3Cc3ccccc3)c2-c2cccc(Cl)c2)C1 | 1 | 58 | – | – | – | – | –
2 | CC(=O)c1c(C)nc2c(c(C#N)cn2Cc2ccccc2)c1-c1ccc([N+](=O)[O-])cc1 | 0.19 | 6.3 | > 100 | > 100 | > 100 | >100 | IC50 [3]: > 100 µM; Ratio IC50 [4]: 2.4; IC50 [5]: 15 µM; Ratio IC50 [6]: 9.4; Ratio IC50 [7]: 12; IC50 [8]: 59 µM
3 | CC1(C)CC(=O)c2cc3c(C#N)cn(Cc4ccccc4)c3nc2C1 | 0.91 | 12 | > 100 | > 100 | 3.7 | >100 | –
4 | CCCc1c2c(nc3c1c(C#N)cn3C1CCCCC1)CCC2=O | 0.69 | > 100 | > 100 | > 100 | > 100 | >100 | –
5 | CC1(C)CC(=O)c2c(nc3c(c(C#N)cn3Cc3ccccc3)c2-c2c(F)cccc2F)C1 | 0.46 | 0.36 | – | – | – | – | –
6 | CC(C)(C)n1cc(C#N)c2cc(C=O)cnc21 | 0.49 | 14 | 8.1 | > 100 | > 100 | >100 | –
7 | Cc1ccc(-c2cnc3c(c2)c(C#N)cn3Cc2ccccc2)cc1 | 0.49 | > 100 | 8.1 | > 100 | > 100 | >100 | –
8 | CC1(C)CC(=O)c2c(nc3c(c(C#N)cn3Cc3ccccc3)c2-c2ccccc2)C1 | 0.35 | 0.73 | > 100 | > 100 | > 100 | >100 | IC50 [10]: 0.96 µM; IC50 [3]: > 100 µM; Ratio IC50 [4]: 28; IC50 [5]: 9.2 µM; Ratio IC50 [6]: 211; Ratio IC50 [7]: 11; IC50 [11]: 0.73 µM; IC50 [12]: 8.9 µM; IC50 [8]: 69 µM; IC50 [13]: 10 µM
9 | Cc1ccnc2c1NC(=O)c1cccnc1N2C1CC1 [NEVIRAPINE] | 0.04 | – | – | – | – | – | CC50 at 168 h [14]: > 100 µM; CC50 at 168 h [15]: > 100 µM; CC50 at 168 h [16]: > 100 µM
10 | O=C1Nc2ccc(Cl)cc2[C@@](C#CC2CC2)(C(F)(F)F)O1 [EFAVIRENZ] | – | – | > 100 | > 100 | > 100 | – | –
11 | CCCCn1cc(C#N)c2c(-c3ccc(C(F)(F)F)cc3F)c3c(nc21)-c1ccccc1C3=O | 0.83 | 0.58 | 6.8 | > 100 | 48 | >100 | IC50 [3]: > 100 µM; Ratio IC50 [4]: 49; IC50 [5]: 28 µM; IC50 [8]: > 100 µM
12 | C=CCn1cc(C#N)c2cc(C#N)cnc21 | 0.76 | > 100 | > 100 | > 100 | > 100 | >100 | –
13 | CC(=O)c1cc2c(-c3ccc(N(C)C)cc3)c3c(nc2[nH]1)-c1ccccc1C3=O | 0.93 | 15 | 11 | > 100 | 24 | >100 | –
14 | CC1(C)CC(=O)c2c(nc3c(c(C#N)cn3Cc3ccccc3)c2-c2ccc([N+](=O)[O-])cc2)C1 | – | 1.4 | – | – | – | – | –
15 | N#Cc1cn(Cc2ccccc2)c2ncc(Br)cc12 | 0.47 | > 100 | > 100 | > 100 | > 100 | >100 | –
16 | CC1(C)CC(=O)c2c(nc3c(c(C#N)cn3Cc3ccccc3)c2-c2ccc(F)cc2)C1 | – | 2.9 | – | – | – | – | –
17 | Cc1cccc(C)c1-c1c2c(nc3c1c(C#N)cn3Cc1ccccc1)CC(C)(C)CC2=O | > 100 | 26 | – | – | – | – | –
